Test: In-vitro dissolution, standard protocol according to USP 24 monographs
Assay type: physicochemical
Settings: HPLC or UV/VIS detection, control (drug as received) in parenthesis
Procedure: The dissolution progress was measured after 5, 10, 15, and 60 minutes using either High Pressure Liquid Chromatography (HPLC) or UV/VIS detection as the analytical tools. […] For comparison, the corresponding data for the controls are given in parenthesis.

In the case of CC(=O)N1CCN(c2ccc(OCC3COC(Cn4ccnc4)(c4ccc(Cl)cc4Cl)O3)cc2)CC1 (stereo not shown) [Ketoconazole, ketoconazole], the “percent of dissolved sample, 5 min” value (5 min) is reported as 31%, the “percent of dissolved sample, 10 min” value (10 min) is reported as 41% and the “percent of dissolved sample, 15 min” value (15 min) is reported as 48%. The “percent of dissolved sample, 60 min” value (60 min) was “(100%)”.

Source: patent US20030133987A1, “Drug nanoparticles from template emulsions” (priority 2002, published 2003)
